The record followed here is ChEMBL document CHEMBL1201862, “PubChem BioAssay data set” (2004).

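Step 1: Grow cells in 96-well plates. Step 2: Expose to compound for 48 hours at 5 concentrations. Step 3: Interpolate endpoints linearly; if unreached, use highest concentration. GI50 is the concentration that inhibits growth by half.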 Calls of active or inactive are those of the source. Rule as the data show it: active = GI50 up to about 1.1 µM and inactive = higher. Peptide text beside a SMILES is read from it. * marks the point of attachment. Cbz = O=C(OCc1ccccc1)*; Boc = CC(C)(C)OC(=O)*; OBn = c1ccc(CO*)cc1

Among the test systems are A498; HL-60; HOP-62; HOP-92; Hs-578T; LOX IMVI; MDA-MB-231; Malme-3M; NCI-H460; OVCAR-4; RPMI-8226; RXF 393; SF-268; SF-539; SR; TK-10; UO-31; UACC-257; CCRF-CEM.
What all share (assay): inhibition of tumour cell growth, NCI panel, 48 h

Consider `COC(=O)C(CCCCNC(=O)OCc1ccccc1)NC(=O)C(CCC(=O)OCc1ccccc1)NC(=O)OC(C)(C)C` (stereo unspecified) (Boc-Glu(OBn)-Lys(Cbz)-OMe; configuration not given here), for which the GI50 in the experiment with A498 was 16.1 µM (inactive); with HL-60, > 100 µM (inactive); with HOP-62, 15 µM (inactive); with HOP-92, > 100 µM (inactive); with Hs-578T, 27.7 µM (inactive); in the experiment with LOX IMVI, > 100 µM (inactive). Besides, the GI50 was 73.6 µM (inactive) with MDA-MB-231; 54.3 µM (inactive) in the experiment on Malme-3M; > 10 µM (inactive) with NCI-H460; 57.3 µM (inactive) with OVCAR-4; > 100 µM (inactive) in the experiment on RPMI-8226; > 100 µM (inactive) in the experiment with RXF 393. Besides, the GI50 in the experiment on SF-268, in the experiment on SF-539, in the experiment on SR, with TK-10 and with UO-31 was > 100 µM (inactive) throughout.

Take `Cc1onc(-c2c(F)cccc2Cl)c1C(=O)N[C@@H]1C(=O)N2[C@@H]1SC(C)(C)[C@@H]2C(=O)O`: the GI50 in the experiment on A498 is > 100 µM (inactive); in the experiment on HOP-62, > 100 µM (inactive); with HOP-92 it was > 100 µM (inactive); in the experiment on Hs-578T it was 44 µM (inactive); in the experiment with MDA-MB-231 it was > 100 µM (inactive); in the experiment on Malme-3M, > 100 µM (inactive). The GI50 in the experiment with NCI-H460, in the experiment on OVCAR-4, in the experiment on RPMI-8226, in the experiment with RXF 393, in the experiment with SF-268 and in the experiment on SF-539 was > 100 µM (inactive) throughout. Besides, the GI50 with SR is > 100 µM (inactive); in the experiment on TK-10 it was > 100 µM (inactive); with UACC-257, > 100 µM (inactive); with UO-31, 24.5 µM (inactive).

For the compound `CC(=O)NC1C(OCc2ccccc2)OC(CO)C(O)C1OCC(=O)NC(C)C(=O)NC(CCC(=O)NCCCCNc1ccc([N+](=O)[O-])c2[nH]c3ccccc3c(=O)c12)C(N)=O` (stereo unspecified), the GI50 with A498 is > 100 µM (inactive); in the experiment with HL-60 it was > 100 µM (inactive); in the experiment with HOP-62, > 100 µM (inactive); in the experiment on HOP-92 it was > 100 µM (inactive); in the experiment with Hs-578T, 29.6 µM (inactive); in the experiment with LOX IMVI it was > 100 µM (inactive). Further, the GI50 is > 100 µM (inactive) in the experiment with MDA-MB-231; > 100 µM (inactive) in the experiment with Malme-3M; 68.5 µM (inactive) with NCI-H460; 40.5 µM (inactive) in the experiment with OVCAR-4; 38.8 µM (inactive) in the experiment with SF-268; 49.3 µM (inactive) in the experiment with SF-539. Moreover, the GI50 in the experiment with SR is 2.87 µM (inactive); in the experiment with TK-10, 92.9 µM (inactive); in the experiment on UO-31, > 100 µM (inactive).

As to `Cc1ccc(N(C(=O)Nc2ccccc2)C2=NCC(C)S2)cc1C` (stereo unspecified), the GI50 in the experiment on A498 was 14 µM (inactive); in the experiment on CCRF-CEM, 19.6 µM (inactive); in the experiment on HL-60 it was 20.1 µM (inactive); in the experiment with HOP-62, 53.3 µM (inactive); in the experiment with HOP-92, 22.5 µM (inactive); in the experiment on Hs-578T, 23.2 µM (inactive). The GI50 with LOX IMVI was 16.6 µM (inactive); in the experiment on MDA-MB-231, 18.7 µM (inactive); with Malme-3M it was 20.3 µM (inactive); with NCI-H460, 18 µM (inactive); with OVCAR-4, 28.9 µM (inactive); in the experiment on RPMI-8226 it was 20 µM (inactive). Besides, the GI50 in the experiment on SF-268 was 24 µM (inactive); in the experiment with SF-539, 20.4 µM (inactive); in the experiment on SR it was 23.7 µM (inactive); with TK-10 it was 21 µM (inactive); with UACC-257 it was > 10 µM (inactive); in the experiment on UO-31 it was 18.5 µM (inactive).

For the compound `C#CC(O)/C=C/CCCCCCC#CC/C=C\CC#CCCCCCCCCC(O)C#C` (stereo unspecified), the GI50 in the experiment with A498 was 12.6 µM (inactive); in the experiment on CCRF-CEM, 0.0836 µM (active); in the experiment on HL-60, 1.74 µM (inactive); with HOP-62, 4.27 µM (inactive); with HOP-92, 1.8 µM (inactive); in the experiment with Hs-578T, 20.6 µM (inactive). For the same compound, the GI50 in the experiment on LOX IMVI is < 0.01 µM (active); in the experiment on MDA-MB-231, 3.32 µM (inactive); in the experiment on Malme-3M it was 1.95 µM (inactive); with NCI-H460, 17.1 µM (inactive); with OVCAR-4, 4.19 µM (inactive); in the experiment with RXF 393, 14.6 µM (inactive). For the same compound, the GI50 in the experiment with SF-268 is 9.59 µM (inactive); with SF-539 it was 20.8 µM (inactive); with SR it was 2.37 µM (inactive); in the experiment with TK-10, 13.1 µM (inactive); with UACC-257, 3.35 µM (inactive); with UO-31, 0.667 µM (active).

With `NC(=O)Cc1ncn(-c2ccccc2)n1`, the GI50 in the experiment on A498, in the experiment with CCRF-CEM, in the experiment with HL-60, in the experiment on HOP-62, in the experiment with HOP-92 and in the experiment with Hs-578T was > 100 µM (inactive) throughout. Moreover, the GI50 with LOX IMVI, in the experiment on MDA-MB-231, with Malme-3M, with RPMI-8226, with RXF 393 and in the experiment with SF-268 was > 100 µM (inactive) throughout. Besides, the GI50 in the experiment with SF-539, in the experiment with SR, in the experiment with TK-10, in the experiment on UACC-257 and in the experiment on UO-31 was > 100 µM (inactive) throughout.

In the case of `CC(=O)N(C)c1cc(NCc2ccccc2)ccc1OCc1ccccc1`, the GI50 in the experiment with A498 is 16.3 µM (inactive); in the experiment with CCRF-CEM, 23.6 µM (inactive); in the experiment with HL-60 it was 26 µM (inactive); in the experiment on HOP-62, 33 µM (inactive); with HOP-92, 12.7 µM (inactive); in the experiment with Hs-578T, 31.4 µM (inactive). Further, the GI50 in the experiment with LOX IMVI was 20 µM (inactive); in the experiment with MDA-MB-231, 15.8 µM (inactive); in the experiment on Malme-3M, 16.1 µM (inactive); in the experiment on NCI-H460, 17.9 µM (inactive); in the experiment on OVCAR-4 it was 18.7 µM (inactive); in the experiment on RXF 393 it was 14.8 µM (inactive). Further, the GI50 in the experiment on SF-268 is 14.7 µM (inactive); in the experiment on SF-539, 17.3 µM (inactive); in the experiment with SR, 15.5 µM (inactive); in the experiment on TK-10, 17.7 µM (inactive); in the experiment with UACC-257 it was 17.3 µM (inactive); in the experiment with UO-31, 14.8 µM (inactive).

For the compound `CCCCCCNCCc1c[nH]cn1`, the GI50 in the experiment on A498, in the experiment on CCRF-CEM, with HOP-62, with HOP-92, in the experiment on Hs-578T and in the experiment on LOX IMVI was > 100 µM (inactive) each time. In addition, the GI50 with MDA-MB-231, in the experiment with Malme-3M, in the experiment on NCI-H460, in the experiment on OVCAR-4, in the experiment on RPMI-8226 and in the experiment on RXF 393 was > 100 µM (inactive) in each case. In addition, the GI50 in the experiment with SF-268, in the experiment on SF-539, in the experiment on SR, in the experiment with UACC-257 and in the experiment on UO-31 was > 100 µM (inactive) each time.

Turning to `CC(=O)O[C@H]1CC[C@@]2(C)C(=CC[C@H]3[C@@H]4C/C(=C\c5ccc(N(C)C)cc5)[C@H](OC(C)=O)[C@@]4(C)CC[C@@H]32)C1`, the GI50 in the experiment with A498 was 18.9 µM (inactive); in the experiment on HL-60 it was 11.5 µM (inactive); with HOP-62, 14.1 µM (inactive); in the experiment on Hs-578T, 3.72 µM (inactive); in the experiment with LOX IMVI, 8.91 µM (inactive); with MDA-MB-231, 12.5 µM (inactive). The GI50 in the experiment with Malme-3M is 12.6 µM (inactive); with NCI-H460, 5.19 µM (inactive); in the experiment on OVCAR-4, 14.7 µM (inactive); with RPMI-8226, 4.89 µM (inactive); with RXF 393 it was 9.91 µM (inactive); in the experiment with SF-268, 12.7 µM (inactive). The GI50 in the experiment with SF-539 was 10.7 µM (inactive); in the experiment with SR, 4.1 µM (inactive); with TK-10, 15.6 µM (inactive); with UACC-257 it was 6.14 µM (inactive); in the experiment on UO-31 it was 11.3 µM (inactive).

For `c1ccc(C2=C(c3ccccc3)P(c3ccccc3)C2)cc1` (stereo unspecified), the GI50 is > 100 µM (inactive) in the experiment on A498; 22.5 µM (inactive) in the experiment with CCRF-CEM; > 100 µM (inactive) in the experiment with HOP-62; > 100 µM (inactive) in the experiment on HOP-92; 40.5 µM (inactive) in the experiment with Hs-578T; > 100 µM (inactive) with MDA-MB-231. For the same compound, the GI50 with Malme-3M is 67.1 µM (inactive); with NCI-H460 it was 92.3 µM (inactive); in the experiment with OVCAR-4 it was > 100 µM (inactive); with RXF 393, > 100 µM (inactive); with SF-268, > 100 µM (inactive); in the experiment on SF-539 it was > 100 µM (inactive). Also, the GI50 in the experiment with SR is 22.8 µM (inactive); in the experiment with TK-10, > 100 µM (inactive); in the experiment on UACC-257, > 100 µM (inactive).

Regarding `N=C(N)n1nc2c(c1O)CCCC2`, the GI50 in the experiment with A498 was 8.22 µM (inactive); with CCRF-CEM, > 100 µM (inactive); in the experiment with HL-60, > 100 µM (inactive); in the experiment with HOP-62 it was > 100 µM (inactive); with Hs-578T it was > 100 µM (inactive); with LOX IMVI it was > 100 µM (inactive). In addition, the GI50 with MDA-MB-231, in the experiment with Malme-3M, in the experiment with NCI-H460, in the experiment on OVCAR-4, in the experiment on RPMI-8226 and in the experiment on RXF 393 was > 100 µM (inactive) each time. Also, the GI50 with SF-268, in the experiment on SF-539, in the experiment with SR, with TK-10, in the experiment with UACC-257 and in the experiment on UO-31 was > 100 µM (inactive) in each case.
